Results as given in US20080069896A1, “Antitumor Composition” (Kabushiki Kaisha Sangi, priority 2004, published 2008).

Key:
Type in all cases: cell-based
HeLa = assay: MTT assay, human cancer cells HeLa
Experimental: (§1) Effect of platinum tetrachloride/hydroxyapatite (PtCl4/HAP) and hexachloroplatinate/hydroxyapatite (H2PtCl6/HAP) against human cancer cells (MTT assay)
(§2) According to “in vitro toxicity test using MTT”, which is an ordinary test method, MTT assay was performed for PtCl4/HAP (particle diameter 0.1 μm or less), and H2PtCl6/HAP (particle diameter 0.1 μm or less) by using 19 types of human cancer cells. PtCl4/HAP and H2PtCl6/HAP were used by adjusting the final dispersion concentration to 1.0% in a dispersion liquid each containing 10% platinum as a theoretical value. For comparison, MTT assay was performed for PtCl4 and CDDP. PtCl4 was dissolved at an adequate dose, and then used after serial dilution with PBS (−). For CDDP, injection liquid from Malco was used.

SiHa = assay: MTT assay, human cancer cells SiHa
Experimental: as §1, §2

HT1080 = assay: MTT assay, human cancer cells HT1080
Experimental: as §1, §2

A431 = assay: MTT assay, human cancer cells A431
Experimental: as §1, §2

HSC3 = assay: MTT assay, human cancer cells HSC3
Experimental: as §1, §2

KB = assay: MTT assay, human cancer cells KB
Experimental: as §1, §2

YES1 = assay: MTT assay, human cancer cells YES1
Experimental: as §1, §2

YES2 = assay: MTT assay, human cancer cells YES2
Experimental: as §1, §2

YES3 = assay: MTT assay, human cancer cells YES3
Experimental: as §1, §2

YES4 = assay: MTT assay, human cancer cells YES4
Experimental: as §1, §2

YES5 = assay: MTT assay, human cancer cells YES5
Experimental: as §1, §2

YES6 = assay: MTT assay, human cancer cells YES6
Experimental: as §1, §2

AZ521 = assay: MTT assay, human cancer cells AZ521
Experimental: as §1, §2

Kato-III = assay: MTT assay, human cancer cells Kato-III
Experimental: as §1, §2

NUGC-4 = assay: MTT assay, human cancer cells NUGC-4
Experimental: as §1, §2

SW837 = assay: MTT assay, human cancer cells SW837
Experimental: as §1, §2

LoVo = assay: MTT assay, human cancer cells LoVo
Experimental: as §1, §2

HepG2 = assay: MTT assay, human cancer cells HepG2
Experimental: as §1, §2

[1] = system: human lung cancer cell Lu65; assay: MTT assay, human lung cancer cell Lu65
Experimental: as §1, §2

[2] = system: human lung cancer cell Lu99; assay: MTT assay, human lung cancer cell Lu99
Experimental: as §1, §2

[3] = system: fibroblasts during resting stage; assay: Toxicity test during resting stage (MTT assay); conditions: rat fibroblasts, confluent, 48 hours
Text: A male mature rat was deeply anesthetized with ether, and disinfected by wiping carefully its tail with alcohol. The tail end part was cut by several centimeters, and the skin was removed from coccyx. Tendon was attached to the coccyx, and by culturing the same, fibroblasts can be recovered. Coccyx part was further cut finely with a sterilized pair of scissors, and adhered on a sterilized plastic plate with the cut surface down. After resting the plate for a while, DMEM supplemented with 10% FBS was added thereto. In approximately one week, fibroblasts germinated from the coccyx part, and proliferated in the plate. The fibroblasts collected from rat tail end were used for the following experiment.
Rat fibroblasts during proliferating stage were inoculated 2 times more than usual to a 96-well plate, that 100 μl of cell suspension at 2×10^4 cells/ml. Subsequently, it was cultured for 72 hours, in order to make cells in a confluent condition. After confirming with an inverted microscope that cells were in a complete confluent condition in each well, medium of each well was changed. Then, serially diluted test samples were added to the wells by aliquot of 10 μl, by the above-mentioned method. Culture was continued 48 hours after the addition, and subsequently, MTT assay was performed for PtCl4/HAP (particle diameter 0.1 μm or less), and H2PtCl6/HAP (particle diameter 0.1 μm or less), with similar procedures to those described in the above “toxicity test of PtCl4/HAP and H2PtCl6/HAP during proliferation stage”.

[4] = IC50 converted to platinum concentration
[5] = cervical cancer, HAP agents particle diameter 0.1 μm or less

[Cl][Pt]([Cl])([Cl])[Cl] [PtCl4, platinum tetrachloride]
Platinum content calculated from IC50 of human cancer cells by MTT assay (HeLa; [4]): 4.0 ppm
IC50 of human cancer cells by MTT assay (HeLa; [5]): 7.0 ppm
Platinum content calculated from IC50 of human cancer cells by MTT assay (SiHa; [4]): 5.0 ppm
IC50 of human cancer cells by MTT assay (SiHa; [5]): 8.7 ppm
IC50 of human cancer cells by MTT assay (HT1080; HT1080, fibrosarcoma, HAP agents particle diameter 0.1 μm or less): 9.6 ppm
Platinum content calculated from IC50 of human cancer cells by MTT assay (HT1080; HT1080, IC50 converted to platinum concentration): 5.6 ppm
IC50 of human cancer cells by MTT assay (A431; A431, squamous cell cancer, HAP agents particle diameter 0.1 μm or less): 9.5 ppm
Platinum content calculated from IC50 of human cancer cells by MTT assay (A431; A431, IC50 converted to platinum concentration): 5.5 ppm
IC50 of human cancer cells by MTT assay (HSC3; HSC3, oral cancer, HAP agents particle diameter 0.1 μm or less): 9.6 ppm
Platinum content calculated from IC50 of human cancer cells by MTT assay (HSC3; HSC3, IC50 converted to platinum concentration): 5.5 ppm
Platinum content calculated from IC50 of human cancer cells by MTT assay (KB; [4]): 8.7 ppm
IC50 of human cancer cells by MTT assay (KB; oral cancer, HAP agents particle diameter 0.1 μm or less): 15.0 ppm
IC50 of human cancer cells by MTT assay (YES1; YES1, esophageal cancer, HAP agents particle diameter 0.1 μm or less): 19.2 ppm
Platinum content calculated from IC50 of human cancer cells by MTT assay (YES1; YES1, IC50 converted to platinum concentration): 11.1 ppm
IC50 of human cancer cells by MTT assay (YES2; YES2, esophageal cancer, HAP agents particle diameter 0.1 μm or less): 35.8 ppm
Platinum content calculated from IC50 of human cancer cells by MTT assay (YES2; YES2, IC50 converted to platinum concentration): 20.7 ppm
IC50 of human cancer cells by MTT assay (YES3; YES3, esophageal cancer, HAP agents particle diameter 0.1 μm or less): 19.2 ppm
Platinum content calculated from IC50 of human cancer cells by MTT assay (YES3; YES3, IC50 converted to platinum concentration): 11.1 ppm
IC50 of human cancer cells by MTT assay (YES4; YES4, esophageal cancer, HAP agents particle diameter 0.1 μm or less): 14.6 ppm
Platinum content calculated from IC50 of human cancer cells by MTT assay (YES4; YES4, IC50 converted to platinum concentration): 8.5 ppm
IC50 of human cancer cells by MTT assay (YES5; YES5, esophageal cancer, HAP agents particle diameter 0.1 μm or less): 20.1 ppm
Platinum content calculated from IC50 of human cancer cells by MTT assay (YES5; YES5, IC50 converted to platinum concentration): 11.6 ppm
IC50 of human cancer cells by MTT assay (YES6; YES6, esophageal cancer, HAP agents particle diameter 0.1 μm or less): 11.9 ppm
Platinum content calculated from IC50 of human cancer cells by MTT assay (YES6; YES6, IC50 converted to platinum concentration): 6.9 ppm
IC50 of human cancer cells by MTT assay (AZ521; AZ521, gastric cancer, HAP agents particle diameter 0.1 μm or less): 14.6 ppm
Platinum content calculated from IC50 of human cancer cells by MTT assay (AZ521; AZ521, IC50 converted to platinum concentration): 8.4 ppm
Platinum content calculated from IC50 of human cancer cells by MTT assay (Kato-III; KATO-III, IC50 converted to platinum concentration): 3.4 ppm
IC50 of human cancer cells by MTT assay (Kato-III; Kato-III, gastric cancer, HAP agents particle diameter 0.1 μm or less): 5.8 ppm
IC50 of human cancer cells by MTT assay (NUGC-4; NUGC-4, gastric cancer, HAP agents particle diameter 0.1 μm or less): 7.7 ppm
Platinum content calculated from IC50 of human cancer cells by MTT assay (NUGC-4; NUGC-4, IC50 converted to platinum concentration): 4.5 ppm
IC50 of human cancer cells by MTT assay (SW837; SW837, colon cancer, HAP agents particle diameter 0.1 μm or less): 32.9 ppm
Platinum content calculated from IC50 of human cancer cells by MTT assay (SW837; SW837, IC50 converted to platinum concentration): 19.1 ppm
Platinum content calculated from IC50 of human cancer cells by MTT assay (LoVo; [4]): 3.8 ppm
IC50 of human cancer cells by MTT assay (LoVo; colon cancer, HAP agents particle diameter 0.1 μm or less): 6.6 ppm
IC50 of human cancer cells by MTT assay (HepG2; HepG2, liver cancer, HAP agents particle diameter 0.1 μm or less): 6.2 ppm
Platinum content calculated from IC50 of human cancer cells by MTT assay (HepG2; HepG2, IC50 converted to platinum concentration): 6.2 ppm
IC50 of human cancer cells by MTT assay ([1]; Lu65, lung cancer, HAP agents particle diameter 0.1 μm or less (Table 1)): 0.9 ppm
Platinum content calculated from IC50 of human cancer cells by MTT assay ([1]; Lu65, IC50 converted to platinum concentration (Table 2)): 0.9 ppm
IC50 of human cancer cells by MTT assay ([2]; Lu99, lung cancer, HAP agents particle diameter 0.1 μm or less (Table 1)): 1.1 ppm
Platinum content calculated from IC50 of human cancer cells by MTT assay ([2]; Lu99, IC50 converted to platinum concentration (Table 2)): 1.1 ppm
Net Pt: platinum content wherein IC50 is converted to platinum concentration, resting stage [3]: 13.8 ppm
IC50 in the toxicity test during resting stage ([3]; HAP agents particle diameter 0.1 μm or less): 23.8 ppm
